According to publication PMC8072597, “Chromeno[3,4-b]xanthones as First-in-Class AChE and Aβ Aggregation Dual-Inhibitors” (International Journal of Molecular Sciences, 2021):
Read-outs that look alike come from different tables or passages of the source.

Legend:
[1] = molecular target: AChE (Electrophorus electricus—eeAChE) (Electrophorus electricus, UniProt O42275); experiment: biochemical; type: biochemical
Protocol: The synthesized compounds were evaluated for their inhibitory activity against AChE (Electrophorus electricus—eeAChE), using an adaptation of Ellman’s method. […] Initially, we performed a screening assay for the synthesized compounds to determine their enzyme inhibition at 20 μΜ as a threshold maximum concentration. […]
The inhibitory activity of the synthesized compounds towards AChE was evaluated spectrophotometrically by a 96-well microplate modified Ellman’s method. The enzyme (AChE) from Electrophorus electricus (eeAChE) stock solution was prepared as 7.4 U/mL in phosphate buffer, at pH 7. The stock solutions for the target compounds (0.1 M) were prepared in DMSO. The assay solution consisted of 0.0005 M 5,5′-dithiobis(2-nitrobenzoic acid) (DTNB), 0.013 U/mL eeAChE, and 0.0025 M acetylthiocholine iodide ATC (substrate for AChE) in 0.1 M phosphate buffer, at pH 7. The reaction mixture was prepared with 100 μL of the enzyme (eeAChE) and 50 μL of the test compound (or DMSO/water, not exceeding 0.2% of DMSO in the wells; i.e., blank samples). After 5 min of the pre-incubation period at 37 °C, 50 μL of acetylthiocholine iodide ATC and 50 μL of 5,5′-dithiobis(2-nitrobenzoic acid) (DTNB) were added to each well, thus initiating the enzymatic reaction. […] All compounds were tested at a screening concentration of 20 μM. The enzyme inhibition was calculated using the […] formula, where S and B are the enzyme activities with and without the test compound, respectively. […] All the reactions were performed in triplicate.

[2] = molecular target: T1, HFIP-treated Aβ1-42 peptides (Homo sapiens, UniProt P05067); experiment: Aβ aggregation inhibition, thioflavin T (ThT)-based fluorimetric assay; type: biochemical; conditions: 20 μM compound; for inhibition at 20 µM: read-out: Aβ1-42 Aggregation (% Inhib. at 20 μM)
T1 construct: (HFIP)-treated Aβ1-42 peptides
T1 sequence (P05067 672-713): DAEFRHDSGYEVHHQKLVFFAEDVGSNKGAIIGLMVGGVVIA
Excerpt: The formation of amyloid aggregates is crucial for the path mechanism of AD. Therefore, we also decided to check the inhibitory activity of the synthesized compounds against the Aβ aggregation. To do so, we conducted a thioflavin T (ThT)-based fluorimetric assay to evaluate their ability to inhibit β-amyloid aggregation in vitro, using 1,1,1,3,3,3,-hexafluoro-2-propanol (HFIP)-treated Aβ1-42 peptides. This assay is based on the interaction between benzothiazole dye (ThT) and cross β-sheet quaternary structure of the amyloid protein. The intensity of fluorescence is weak when the dye is free and increases when the dye binds to β-sheet structures. Cumulative evidence has been shown that aromatic/hydrophobic areas and hydrogen bonding components (such as hydroxy or methoxy groups) along flat extended structures in small-molecule inhibitors as in chromeno[3,4-b]xanthones 4a-i, are important structural features for Aβ aggregation inhibitors. […] The ThT fluorescence data was recorded over 24 h and the obtained results were then plotted against time, as illustrated in Figure 5. Phenol red was used as the reference inhibitor for in vitro Aβ aggregation.
The inhibition of Aβ1-42 aggregation was determined through a ThT-based fluorimetric assay. Initially, the Aβ-peptides (1 mg) were pre-treated with 1,1,1,3,3,3,-hexafluoro-2-propanol (HFIP), kept at room temperature overnight, aliquoted, and dried under vacuum. The Aβ-peptides stock solutions (111 μM) were then prepared in ammonium hydroxide 0.1% (NH4OH) prior to the fluorescence assay. The stock solutions of all tested compounds (400 μM) were prepared in DMSO, while the stock solution of ThT (400 μM) was prepared in distilled water (1 mL). The Aβ aggregation was monitored using a standard 96-well plates, in the Synergy multi-mode reader (BioTek) and setting the excitation and emission wavelengths at 440 and 485 nm, respectively. Samples were prepared by diluting the stock solutions in PBS pH 7.4 to a final Aβ peptides concentration of 10 μM, 20 μM of ThT and 20 μM of the test compound (maximum final DMSO content: 5% v/v), with a final volume of 100 μL. The assays were performed at room temperature. The fluorescence data was recorded over 24 h with 5 s shaking (360 cpm) prior to each reading and then plotted against the time, using a nonlinear regression. Phenol red was used as the reference compound. Each condition was performed in triplicate, and values were averaged. The estimation of the inhibitory potency (%) was carried out by comparing fluorescence values at the plateau.

[3] = Table 1, mean ± SEM, n = 3, each in triplicate, pH 7, 37 °C, read-out: eeAChE [IC50 (μM)]
[4] = Table 3 (dual-target summary), mean ± SEM, n = 3, read-out: eeAChE (IC50 [μM])
[5] = Table 2, 10 μM Aβ, fluorescence at plateau over 24 h, <10 = no inhibition observed

AChE (Electrophorus electricus—eeAChE), sequence (O42275 24-633): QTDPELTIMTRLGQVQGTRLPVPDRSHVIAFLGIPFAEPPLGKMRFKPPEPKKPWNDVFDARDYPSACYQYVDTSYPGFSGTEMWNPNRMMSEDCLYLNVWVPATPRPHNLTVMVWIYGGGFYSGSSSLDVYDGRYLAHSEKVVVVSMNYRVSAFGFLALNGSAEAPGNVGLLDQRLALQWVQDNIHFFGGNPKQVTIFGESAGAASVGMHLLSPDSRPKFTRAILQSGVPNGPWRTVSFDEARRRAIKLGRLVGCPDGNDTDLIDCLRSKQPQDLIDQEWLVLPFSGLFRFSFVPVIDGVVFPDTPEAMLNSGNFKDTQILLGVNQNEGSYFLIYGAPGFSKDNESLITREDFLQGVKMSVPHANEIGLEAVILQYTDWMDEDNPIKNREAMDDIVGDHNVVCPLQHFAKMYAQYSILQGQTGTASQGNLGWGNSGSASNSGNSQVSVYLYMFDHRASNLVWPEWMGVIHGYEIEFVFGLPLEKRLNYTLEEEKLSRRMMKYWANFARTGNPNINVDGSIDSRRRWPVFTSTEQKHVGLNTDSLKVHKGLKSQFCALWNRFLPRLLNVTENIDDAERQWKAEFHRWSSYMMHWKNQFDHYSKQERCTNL

| Molecule | IC50 [1, 3] | inhibition at 20 µM [2, 5] | other results |
| --- | --- | --- | --- |
| 2,9-Dimethoxy-6H,8H-chromeno[3,4-b]xanthen-8-one [Compound 4g] | > 20 µM |  |  |
| 2,11,12-trimethoxy-6H,8H-chromeno[3,4-b]xanthen-8-one [Compound 4h] | > 20 µM |  |  |
| 2,11-Dimethoxy-6H,8H-chromeno[3,4-b]xanthen-8-one [Compound 4f] | 4.8 ± 0.1 µM |  | IC50 [1, 4]: 4.8 ± 0.1 µM; Aβ1-42 Aggregation (% Inhib. at 20 μM) [2, 5]: 52%; Aβ1-42 Aggregation (% Inhib. at 20 μM) ([2]; Table 3 (dual-target summary)): 52% |
| 2-Methoxy-6H,8H-chromeno[3,4-b]xanthen-8-one [Compound 4e] | 6.9 ± 0.3 µM |  | IC50 [1, 4]: 6.9 ± 0.3 µM; Aβ1-42 Aggregation (% Inhib. at 20 μM) [2, 5]: 61%; Aβ1-42 Aggregation (% Inhib. at 20 μM) ([2]; Table 3 (dual-target summary)): 61% |
| C#CCOc1ccccc1/C=C/c1cc(=O)c2ccccc2o1 [Compound 3a, (E)-2-[2-(prop-2-yn-1-yloxy)styryl]-4H-chromen-4-one] |  | < 10% | IC50 [1]: 9.5 ± 0.3 µM |
| C#CCOc1ccccc1/C=C/c1cc(=O)c2ccc(OC)cc2o1 [Compound 3b, (E)-7-methoxy-2-[2-(prop-2-yn-1-yloxy)styryl]-4H-chromen-4-one] | > 20 µM | < 10% |  |
| C#CCOc1ccccc1/C=C/c1cc(=O)c2c(OC)cccc2o1 [Compound 3c, (E)-5-methoxy-2-[2-(prop-2-yn-1-yloxy)styryl]-4H-chromen-4-one] | > 20 µM |  |  |
| C#CCOc1ccccc1/C=C/c1cc(=O)c2ccc(OC)c(OC)c2o1 [Compound 3d, (E)-7,8-dimethoxy-2-[2-(prop-2-yn-1-yloxy)styryl]-4H-chromen-4-one] |  | < 10% | IC50 [1]: 2.4 ± 0.1 µM |
| C#CCOc1cc(OC)ccc1/C=C/c1cc(=O)c2ccccc2o1 [Compound 3e, (E)-2-[4-methoxy-2-(prop-2-yn-1-yloxy)styryl]-4H-chromen-4-one] | > 20 µM |  |  |
| C#CCOc1cc(OC)ccc1/C=C/c1cc(=O)c2ccc(OC)cc2o1 [Compound 3f, (E)-7-methoxy-2-[4-methoxy-2-(prop-2-yn-1-yloxy)styryl]-4H-chromen-4-one] | > 20 µM | 48% |  |
| C#CCOc1ccc(Br)cc1/C=C/c1cc(=O)c2ccccc2o1 [Compound 3i] | > 20 µM |  |  |
| O=c1c2ccccc2oc2cc3c(cc12)COc1ccccc1-3 [Compound 4a, 6H,8H-Chromeno[3,4-b]xanthen-8-one] |  | < 10% | IC50 [1]: 2.1 ± 0.2 µM |
| COc1ccc2c(=O)c3cc4c(cc3oc2c1)-c1ccccc1OC4 [Compound 4b] |  | 70% | IC50 [1, 4]: 3.9 ± 0.1 µM; inhibition at 20 µM ([2]; Table 3 (dual-target summary)): 66 to 70% |
| COc1cccc2oc3cc4c(cc3c(=O)c12)COc1ccccc1-4 [Compound 4c, 9-Methoxy-6H,8H-chromeno[3,4-b]xanthen-8-one] | > 20 µM |  |  |
| COc1ccc2c(=O)c3cc4c(cc3oc2c1OC)-c1ccccc1OC4 [Compound 4d, 11,12-Dimethoxy-6H,8H-chromeno[3,4-b]xanthen-8-one] | > 20 µM |  |  |
| O=c1c2ccccc2oc2cc3c(cc12)COc1ccc(Br)cc1-3 [Compound 4i, 2-bromo-6H,8H-chromeno[3,4-b]xanthen-8-one] | > 20 µM |  |  |
| N#CCOc1ccccc1/C=C/c1cc(=O)c2ccccc2o1 [Compound 6, (E)-2-{2-[2-(4-oxo-4H-chromen-2-yl)vinyl]phenoxy}acetonitrile] | > 20 µM |  |  |
| C#CCN(CC#C)c1ccccc1/C=C/c1cc(=O)c2ccccc2o1 [Compound 8, (E)-2-{2-[di(prop-2-yn-1-yl)amino]styryl}-4H-chromen-4-one] |  | 18% | IC50 [1, 4]: 8.7 ± 0.2 µM; inhibition at 20 µM ([2]; Table 3 (dual-target summary)): 18% |
| Cc1ccc(C#CCOc2ccccc2/C=C/c2cc(=O)c3ccccc3o2)cc1 [Compound 10, (E)-2-(2-{[3-(4-methylphenyl)prop-2-yn-1-yl]oxy}styryl)-4H-chromen-4-one] |  | 66% | IC50 [1, 4]: 2.9 ± 0.1 µM; inhibition at 20 µM ([2]; Table 3 (dual-target summary)): 66 to 70% |
| O=S1(=O)OC(c2ccc(O)cc2)(c2ccc(O)cc2)c2ccccc21 [Phenol Red, Phenol red, reference compound] |  | 20% |  |
| (E)-7,8-dimethoxy-2-[4-methoxy-2-(prop-2-yn-1-yloxy)styryl]chroman-4-one [Compound 3h] | > 20 µM |  |  |
| (E)-8-methoxy-3-[4-methoxy-2-(prop-2-yn-1-yloxy]styryl)naphthalen-1(4H)-one [Compound 3g] | > 20 µM |  |  |
